The assay deals with seeds of Eustoma grandiflorum “F1 Mellow Violet”. Put plainly: Germination rate test after storage of seeds in oily substance. The class given is in vivo. Here is the method: After a predetermined amount of culture soil (Metro-Mix350, manufactured by Scotts) was filled into a cell tray, 100 seeds were sown, and water sprinkling was performed as necessary. With regard to the light conditions, suitable conditions for each seed type were adopted. After sowing, the number of germinated seeds was measured over time, and the number of germinated seeds with respect to the 100 seeds was calculated as a germination rate (%).
The germination rate (%) obtained 10 days after sowing was particularly evaluated as germination vigor (%). The germination vigor is a measure of germination speed or whether germination is uniform, and higher germination vigor values mean faster and more uniform germination. In the case of seeds of a plant that takes long time to germinate, the number of days after sowing was changed as appropriate to obtain the germination vigor.
The germination rate (%) obtained 14 days after sowing was particularly evaluated as the final germination rate (%). In the case of seeds of a plant that takes long time to germinate, the number of days after sowing was changed as appropriate to obtain the final germination rate. […]
First, 0.01 g of seeds of Eustoma grandiflorum “F1 Mellow Violet” was placed in each of 1.5 mL test tubes. Subsequently, 1.5 mL of a medium-chain triglyceride was gently poured into each test tube, which was then capped. The seeds were completely immersed in the medium-chain triglyceride. The test tubes were stored at 4° C. or 25° C. in darkness for 6 months, 18 months, or 36 months, and afterward, the seeds were removed from the test tubes, and a germination rate test was performed. A germination rate test for Eustoma grandiflorum “F1 Mellow Violet” seeds immediately after purchasing was also performed at the same time.

As to `CCCC(=O)O` [Example 10, butanoic acid], the “Germination rate (%) 10 days (germination vigor)” value (“Germination rate (%) 10 days” for short) was found to be 94% (Stored at 4° C., 6 months); 95% (Stored at 4° C., 18 months); 95% (Stored at 4° C., 36 months); 95% (Stored at 25° C., 6 months); 93% (Stored at 25° C., 18 months); 92% (Stored at 25° C., 36 months). The “Germination rate (%) 14 days (final germination rate)” value (“Germination rate (%) 14 days” for short) is, setting by setting: (Stored at 4° C., 6 months) 94%; (Stored at 4° C., 18 months) 95%; (Stored at 4° C., 36 months) 96%; (Stored at 25° C., 6 months) 96%; (Stored at 25° C., 18 months) 96%; (Stored at 25° C., 36 months) 95%.
In the case of `CCCCCCCC(=O)O` [Example 11, octanoic acid], the “Germination rate (%) 10 days” value reads like this: (Stored at 4° C., 6 months) 93%; (Stored at 4° C., 18 months) 96%; (Stored at 4° C., 36 months) 95%; (Stored at 25° C., 6 months) 93%; (Stored at 25° C., 18 months) 91%; (Stored at 25° C., 36 months) 90%. The “Germination rate (%) 14 days” value (Stored at 4° C., 6 months) came out at 93%; the “Germination rate (%) 14 days” value (Stored at 4° C., 18 months) amounted to 96%; the “Germination rate (%) 14 days” value (Stored at 4° C., 36 months) turned out to be 95%; the “Germination rate (%) 14 days” value (Stored at 25° C., 6 months) is reported as 93%; the “Germination rate (%) 14 days” value (Stored at 25° C., 18 months) turned out to be 93%; the “Germination rate (%) 14 days” value (Stored at 25° C., 36 months) worked out at 93%.
Turning to `CCCCCCCCCCCO` [Example 17, undecyl alcohol], the “Germination rate (%) 10 days” value came out at 94% (Stored at 4° C., 6 months); 94% (Stored at 4° C., 18 months); 90% (Stored at 4° C., 36 months); 94% (Stored at 25° C., 6 months); 95% (Stored at 25° C., 18 months); 89% (Stored at 25° C., 36 months). Moreover, the “Germination rate (%) 14 days” value is reported as 96% (Stored at 4° C., 6 months); 94% (Stored at 4° C., 18 months); 92% (Stored at 4° C., 36 months); 95% (Stored at 25° C., 6 months); 94% (Stored at 25° C., 18 months); 92% (Stored at 25° C., 36 months).
